What was measured:
Type in all cases: biochemical
[1] = biological target: T1, Src (Homo sapiens, UniProt P12931); experiment: Src enzyme assay (HTRF); settings: N-85 Src, 10 μM ATP, pIC50 = -log10(IC50) in Molar
T1 construct: precede the first globular domain (amino acids 86-536, BR# 455)
Excerpt: The Src enzyme assay used Homogeneous Time Resolved Fluorescence (HTRF) assay technology to measure the enzyme activity. HTRF is based on fluorescence resonance energy transfer between a Europium-labeled phospho-tyrosine antibody (donor) and Allophycocyanin (APC) conjugated to streptavidin (acceptor). This method measured the ability of the purified enzymes to catalyze the transfer of the γ-phosphate from ATP onto tyrosine residues in a biotinylated synthetic peptide. The peptide used for the Src enzyme activity assay was biotin-(6-amino caproic acid)-AAAQQIYGQI-NH2. The enzyme used was baculovirus expressed N-85 Src with the deletion of first 85 amino acids, which precede the first globular domain (amino acids 86-536, BR# 455).
To preactivate enzyme, 180 μM N-85 Src was incubated with 5 mM ATP and 50 mM MgCl2 for 40 min on ice. The preactivated enzyme (0.4 nM final concentration) was then incubated for 30 min at room temperature in either 96-well or 384-well plates containing 200 nM peptide, 10 μM ATP, 0.05 mg/ml MgCl2, and test compound in 0.1 M HEPES pH 7.5. Each reaction was first stopped by the addition of 45 mM EDTA in 0.1 M HEPES pH7.5, then, HTRF reagent was added to measure the signal. After 10 min incubation at room temperature, the plates were read at 665 nm on a Wallac Victor reader with a time delay. The percent inhibition of activity was calculated relative to positive (C1) and negative (C2, EDTA added) control wells using, 100*(1−(U1−C2)/(C1−C2)). The concentration of test compound yielding 50% inhibition was determined using the equation, y=((Vmax*x)/(K+x))+Y2, where “K” was equal to the IC50. The IC50 values were converted to pIC50 values, i.e., −log IC50 in Molar concentration.

[2] = biological target: T2, human TIE2 (Homo sapiens, UniProt Q02763); experiment: TIE-2 enzyme assay (LANCE method); settings: GST-TIE2, 80 uM ATP, pIC50 = -log10(IC50) in Molar
T2 construct: made in house
T2 sequence (Q02763 762-1104): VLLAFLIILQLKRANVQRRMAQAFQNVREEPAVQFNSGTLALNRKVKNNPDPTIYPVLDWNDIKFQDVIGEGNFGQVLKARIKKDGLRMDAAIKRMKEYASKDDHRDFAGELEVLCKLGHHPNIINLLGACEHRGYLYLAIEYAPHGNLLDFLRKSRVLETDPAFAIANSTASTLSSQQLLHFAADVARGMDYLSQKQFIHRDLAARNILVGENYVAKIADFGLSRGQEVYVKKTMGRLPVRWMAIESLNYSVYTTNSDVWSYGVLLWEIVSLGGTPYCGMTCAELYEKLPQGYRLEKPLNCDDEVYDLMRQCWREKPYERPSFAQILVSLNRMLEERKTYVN
Excerpt: The TIE-2 enzyme assay used the LANCE method (Wallac) and GST-TIE2, baculovirus expressed recombinant constructs of the intracellular domains of human TIE2 (amino acids 762-1104, GenBank Accession # L06139) tagged by GST). The method measured the ability of the purified enzymes to catalyse the transfer of the γ-phosphate from ATP onto tyrosine residues in a biotinylated synthetic peptide, D1-15 (biotin-C6-LEARLVAYEGWVAGKKKamide). This peptide phosphorylation was detected using the following procedure: for enzyme preactivation, GST-TIE2 was incubated for 30 mins at room temperature with 2 mM ATP, 5 mM MgCl2 and 12.5 mM DTT in 22.5 mM HEPES buffer (pH7.4). Preactivated GST-TIE2 was incubated for 30 mins at room temperature in 96 well plates with 1 uM D1-15 peptide, 80 uM ATP, 10 mM MgCl2, 0.1 mg/ml BSA and the test compound (diluted from a 10 mM stock in DMSO, final DMSO concentration was 2.4%) In 1 mM HEPES (pH7.4). The reaction was stopped by the addition of EDTA (final concentration 45 mM). Streptavidin linked-APC (allophycocyanin, Molecular Probe) and Europium-labeled anti-phosphorylated tyrosine antibody (Wallac) were then added at the final concentration of 17 ug/well and 2.1 ug/well, respectively. The APC signal was measured using an ARVO multilabel counter. (Wallac Berthold Japan). The percent inhibition of activity was calculated relative to blank control wells. The concentration of test compound that inhibits 50% of activity (IC50) was interpolated using nonlinear regression (Levernberg-Marquardt) and the equation, y=Vmax (1−x/(K+x))+Y2, where “K” was equal to the IC50. The IC50 values were converted to pIC50 values, i.e., −log IC50 in Molar concentration.

[3] = biological target: T3, human EphB4 (Homo sapiens, UniProt P54760); experiment: EphB4 enzyme assay (Scintillation Proximity Assay); settings: GST-EphB4, 1 uM ATP, SPA; pIC50 = -log10(IC50) in Molar
T3 construct: human EphB4 (amino acids 600-914, BR # 21454)
T3 sequence (P54760 600-914): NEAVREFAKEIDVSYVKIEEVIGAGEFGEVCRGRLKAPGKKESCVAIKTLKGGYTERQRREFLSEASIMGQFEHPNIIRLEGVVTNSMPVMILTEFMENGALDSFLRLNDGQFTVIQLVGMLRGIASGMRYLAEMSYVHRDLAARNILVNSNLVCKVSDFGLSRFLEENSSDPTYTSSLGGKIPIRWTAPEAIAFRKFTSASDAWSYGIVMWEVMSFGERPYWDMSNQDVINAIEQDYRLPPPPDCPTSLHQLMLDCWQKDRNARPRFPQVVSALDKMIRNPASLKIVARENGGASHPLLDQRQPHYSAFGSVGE
Protocol: The EphB4 enzyme assay used Scintillation Proximity Assay technology to measure enzyme activity. This method measured the ability of the purified enzymes to catalyse the transfer of the γ-phosphate from ATP onto tyrosine residues in a biotinylated synthetic peptide. […] Each reaction was stopped by the addition of 0.1 mg Streptavidin SPA beads in 100 mM EDTA/1×PBS, pH 7.2. The signal was measured using a Wallac Trilux scintillation counter (Wallac). The percent inhibition of activity was calculated relative to positive (C1) and negative (C2) control wells using, 100*(1−(U1−C2)/(C1−C2)). The concentration of test compound was determined using the equation, y=((Vmax*x)/(K+x))+Y2, where “K” was equal to the IC50. The IC50 values were converted to pIC50 values, i.e., −log IC50 in Molar concentration.

[4] = biological target: T4, VEGFR-2 (Homo sapiens, UniProt P35968); experiment: VEGFR-2 enzyme assay (LANCE method); settings: GST-VEGFR2, 75 uM ATP, pIC50 = -log10(IC50) in Molar
T4 construct: GST-VEGFR2, baculovirus expressed recombinant constructs of the intracellular domains; made in house
T4 sequence (P35968 786-1356 limits assumed): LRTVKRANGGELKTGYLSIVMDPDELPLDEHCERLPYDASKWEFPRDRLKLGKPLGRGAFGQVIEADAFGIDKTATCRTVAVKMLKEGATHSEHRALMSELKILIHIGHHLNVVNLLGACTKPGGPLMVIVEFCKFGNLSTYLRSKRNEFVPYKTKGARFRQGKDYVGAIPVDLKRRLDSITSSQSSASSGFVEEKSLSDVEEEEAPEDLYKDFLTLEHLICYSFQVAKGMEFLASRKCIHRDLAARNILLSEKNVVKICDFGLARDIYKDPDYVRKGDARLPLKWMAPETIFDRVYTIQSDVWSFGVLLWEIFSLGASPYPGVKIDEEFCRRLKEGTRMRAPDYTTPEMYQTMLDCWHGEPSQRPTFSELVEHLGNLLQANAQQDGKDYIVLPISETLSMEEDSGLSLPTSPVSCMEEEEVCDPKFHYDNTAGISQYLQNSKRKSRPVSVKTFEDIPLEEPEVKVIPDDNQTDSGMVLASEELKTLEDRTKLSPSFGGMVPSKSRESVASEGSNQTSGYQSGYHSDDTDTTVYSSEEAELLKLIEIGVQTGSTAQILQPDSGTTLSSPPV
Protocol: The VEGF enzyme assay used the LANCE method (Wallac) and GST-VEGFR2, baculovirus expressed recombinant constructs of the intracellular domains of human […] tagged by GST. […] The reaction was stopped by the addition of EDTA (final concentration 50 mM). […] The APC signal was measured using an ARVO multilabel counter (Wallac Berthold, Japan). The percent inhibition of activity was calculated relative to blank control wells. […] The IC50 values were converted to pIC50 values, i.e., −log IC50 in Molar concentration.

T1 sequence (P12931 86-536): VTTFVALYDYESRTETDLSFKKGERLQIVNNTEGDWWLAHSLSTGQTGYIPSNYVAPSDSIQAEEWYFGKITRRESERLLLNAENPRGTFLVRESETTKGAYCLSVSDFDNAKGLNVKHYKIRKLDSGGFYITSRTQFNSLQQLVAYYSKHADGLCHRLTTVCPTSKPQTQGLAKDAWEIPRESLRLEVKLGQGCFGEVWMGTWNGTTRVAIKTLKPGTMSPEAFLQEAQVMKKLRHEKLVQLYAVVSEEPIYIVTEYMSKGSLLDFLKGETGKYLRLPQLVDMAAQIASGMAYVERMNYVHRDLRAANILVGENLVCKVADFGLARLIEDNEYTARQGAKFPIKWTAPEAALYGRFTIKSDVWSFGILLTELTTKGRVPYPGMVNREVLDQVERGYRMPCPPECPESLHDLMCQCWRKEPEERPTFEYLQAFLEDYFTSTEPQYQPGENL

SMILES | IC50 [1] [nM] | IC50 [2] [nM] | IC50 [3] [nM] | IC50 [4] [nM]
COc1cc(-c2cnc(N)c3c(-c4ccc5[nH]ccc5c4)csc23)cc(OC)c1OC [Iaa, 4-Amino-3 (1H-Indol-5-yl)-7-(3,4,5-trimethoxyphenyl)-thieno[3,2-c]pyridine] | – | 102 to 1000 | – | –
Nc1ncc(-c2cccnc2)c2occ(-c3ccc(NC(=O)Nc4cc(C(F)(F)F)ccc4F)cc3)c12 [Ie] | – | – | – | 0.316 to 3.16

The next lines start with the values.

IC50 [1] [nM] | IC50 [2] [nM] | IC50 [3] [nM] | IC50 [4] [nM] | SMILES
10.2 to 100 | – | – | – | Nc1ncc(-c2cccc(Cl)c2)c2occ(-c3ccc(NC(=O)Nc4cc(C(F)(F)F)ccc4F)cc3)c12 [Ia]
102 to 1000 | 10.2 to 100 | 3.24 to 31.6 | 3.24 to 31.6 | Nc1nccc2occ(-c3ccc(NC(=O)Nc4cc(C(F)(F)F)ccc4F)cc3)c12 [Ib]
1 to 10 | 1 to 10 | 0.316 to 3.16 | – | Nc1ncc(-c2cccc(S(N)(=O)=O)c2)c2occ(-c3ccc(NC(=O)Nc4cc(C(F)(F)F)ccc4F)cc3)c12 [Id]

Reference: patent US7592352B2, “Substituted thieno and furo-pyridines” (SmithKline Beecham Corporation, priority 2003, dated 2009)
